“And” between values parts separate entries of the source, which are not always exact repeats. Equal entries are not always repeated.
Test system: BALB/c mouse heart allografts
Assay: BALB/c mouse heart allograft survival in C3H/He mice
Format: in vivo
Settings: BALB/c heart allograft in C3H/He host; one value per mouse; checked daily by palpitation; time in days
Protocol: A control group of three C3H/He mice received syngeneic transplants. The treatments were given as follows:
Group 1) Anti-CD40L+CTLA4-Ig
Anti-CD40L: 250 μg/injection i.v. (intravenous) on day 0, i.p. (intraperitoneal) on day +2, +4,
CTLA4-Ig: 200 μg/injection i.p. on day 0, +2, +4, +6.
Anti-CD40L: 250 μg/injection i.v. on day 0, i.p. on day +2, +4,
CTLA4-Ig: 200 μg/injection i.p. on day 0, +2, +4, +6,
Group 3) Anti-CD40L+CTLA4-Ig+RPM
CTLA4-Ig: 200 μg/injection i.p. on day 0, +2, +4, +6
RPM: 0.2 mg/kg/day i.p. on day 0, +1, +2, then every other day to day +14.
RPM: 0.2 mg/kg/day i.p. on day 0, +1, +2, then every other day to day +14. The hosts were checked daily for graft survival by palpitation. In addition, other mice were sacrificed for pathologic examination at various time points.

Structure (SMILES): CO[C@H]1C[C@@H]2CC[C@@H](C)[C@@](O)(O2)C(=O)C(=O)N2CCCC[C@H]2C(=O)O[C@H]([C@H](C)C[C@@H]2CC[C@@H](O)[C@H](OC)C2)CC(=O)[C@H](C)/C=C(\C)[C@@H](O)[C@@H](OC)C(=O)[C@H](C)C[C@H](C)/C=C/C=C/C=C/1C [RPM, rapamycin]
- Graft Survival: > 100 (3×) and > 97 and > 89
